Patent US10100076B2, “Modified nucleosides for the treatment of viral infections and abnormal cellular proliferation” (priority 2000, dated 2018)
Read-outs that look alike come from different tables or passages of the source.

Legend:
Influenza A (H3N2) [1] = assay: microbe, parasite or virus in culture; format: cell-based
Influenza A (H1N1) [2] = format: cell-based, Influenza A virus A/Beijing/262/95
[3] = test system: Parainfluenza Type 3 Virus; assay: organism not typed; format: cell-based, Parainfluenza type 3 virus strain 14702
[4] = test system: Parainfluenza Type 3 Virus; assay: organism not typed; format: cell-based; conditions: Initial Test, Neutral Red
[5] = test system: Respiratory Syncytial Virus A; assay: microbe, parasite or virus in culture; format: cell-based, Respiratory Syncytial Virus strain A2
Influenza A (H3N2) [6] = format: cell-based, Influenza A virus A/Sydney/05/97
rDNA (host DNA) = assay: rDNA ΔCt in Huh7 replicon cells (effect on cellular DNA polymerases); conditions: Table 25, average of N
How it was run: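 Host rDNA (or beta-actin DNA) quantified in treated Huh7 replicon cells and compared with no-drug control as ΔCt, a relative measure of cellular DNA polymerase inhibition. A specificity parameter is obtained by subtracting the rDNA ΔCt from the HCV ΔCt.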

[7] = test system: Respiratory Syncytial Virus A; assay: microbe, parasite or virus in culture; format: cell-based; conditions: Initial Test, Neutral Red
Influenza B [8] = assay: microbe, parasite or virus in culture; format: cell-based; conditions: Initial Test, Neutral Red
[9] = test system: rRNA (host RNA polymerase I product); assay: rRNA ΔCt in Huh7 replicon cells (effect on host RNA polymerases); conditions: Table 24, average of n
How it was run: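 Host RNA polymerase I activity estimated by quantifying rRNA in replicon cells relative to no-drug control, expressed as ΔCt. A specificity parameter is obtained by subtracting the HCV ΔCt and rRNA ΔCt values from each other.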

Influenza B [10] = assay: microbe, parasite or virus in culture; format: cell-based
Influenza A (H1N1) [11] = assay: microbe, parasite or virus in culture; format: cell-based; conditions: Initial Test, Neutral Red
HCV replicon = HCV replicon system in Huh7 cells, replicon RNA by Q-RT-PCR (HCV ΔCt, ΔΔCt); format: cell-based, hepatitis C virus; conditions: for Ave. HCV RNA ΔCt: HCV replicon in Huh7 cells
Influenza B [12] = format: cell-based, Influenza B virus B/Beijing/184/93
Influenza A (H3N2) [13] = assay: microbe, parasite or virus in culture; format: cell-based; conditions: Initial Test, Neutral Red
Influenza A (H1N1) [14] = assay: microbe, parasite or virus in culture; format: cell-based
[15] = Confirmatory Test, Visual (EC50)
[16] = Initial Test, CPE Inhibition (Visual)

O=c1nc(NO)ccn1[C@@H]1O[C@H](CO)[C@@H](O)[C@H]1O [β-D-BS]
EC50 (Influenza A (H3N2) [1]; [15]): 0.5 µM
EC50 (Influenza A (H3N2) [1]; [16]): 1.5 µM
EC90 (virus yield reduction) (Influenza A (H1N1) [2]): 0.4 µM
EC50 ([3]; Initial Test, CPE Inhibition (Visual), read-out: EC50, Parainfluenza Type 3 Virus): > 500 µM
antiviral activity against Parainfluenza type 3 virus, in words ([3]; summary of Table 23): no activity against Parainfluenza type 3 virus
EC50 [4]: 40 µM
EC50 ([5]; Initial Test, CPE Inhibition (Visual), read-out: EC50, RSV): 0.5 µM
antiviral activity against RSV, in words ([5]; summary of Table 23): some activities against RSV
EC90 (virus yield reduction) (Influenza A (H3N2) [6]): 0.32 µM
Ave. rDNA ΔCt (rDNA (host DNA)): 0.38
EC50 [7]: < 0.5 µM
EC50 (Influenza B [8]): 1.2 µM
Ave. rRNA ΔCt [9]: 1.05
EC50 (Influenza B [10]; [15]): 0.6 µM
EC50 (Influenza B [10]; [16]): 0.5 µM
EC50 (Influenza A (H1N1) [11]): 1.2 µM
Ave. ΔΔCt (HCV replicon; Table 24, HCV RNA ΔCt minus rRNA ΔCt): 3.83
Ave. HCV RNA ΔCt (HCV replicon; Table 24, average of n): 4.89
average ΔΔCt (HCV replicon; Table 25, HCV RNA ΔCt minus rDNA ΔCt): 4.45
Ave. HCV RNA ΔCt (HCV replicon; Table 25, average of N): 4.81
EC90 (μM), virus yield reduction (Influenza B [12]): 0.6 µM
EC50 (Influenza A (H3N2) [13]): 4 µM
EC50 (Influenza A (H1N1) [14]; [15]): 1.3 µM
EC50 (Influenza A (H1N1) [14]; [16]): 1.5 µM
antiviral activity against influenza A and B, in words (Influenza A (H1N1) [14]; summary of Table 23, influenza A and B): potent in vitro antiviral capacities against influenza A and B
